Test results published in patent publication US20260174780A1, “BISMUTH-THIOL COMPOSITIONS AND METHODS FOR TREATING INFLAMMATORY DISEASES” (Microbion Corporation, priority 2022, published 2026).
“Also recorded” adds a separate entry of the source. Where two headings read alike, the source gives them in different places.

How the values were obtained:
A549 cells = assay: IL-10 expression (ELISA) in A549 cells; type: cell-based, human; settings: 2 μg/mL and 4 μg/mL, 24 h, compared to untreated control
Procedure: A549 cells were differentiated with 50 ng/mL PMA for 24 hours, followed by 24 hours in media prior to infection. Cells were washed with media and treated with insoluble BisEDT or other antibiotics, and incubated for 24 h post treatment. Cell media was then removed and frozen at −80° C. Samples were briefly vortexed before conducting ELISA analysis for IL-10 expression (FIG. 1). BisEDT at a concentration of 2 μg/mL and 4 μg/mL increased the level of IL-10 expression level in A549 cells compared to untreated control.

[1] = Earlier 28-day tolerability work in rats; settings: 28 days
neutrophils = assay: In vitro model of neutrophil recruitment to the lung (transmigration, supernatant and conditioned media cytokines); type: cell-based, human; settings: for viability of the cells: CF-conditioned media and normal media (LTB4); for neutrophil transmigration / recruitment: CF-conditioned media and LTB4
Excerpt: FIG. 6 provides a description of the assay for in vitro modeling of neutrophil recruitment to the lung.
FIG. 7 provides a summary of the process for comparing cellular and soluble inflammatory markers in vitro.
The neutrophils used are primary cells harvested from normal healthy volunteers immediately prior to the study. Cellular and soluble inflammatory markers were compared in vitro as described in FIG. 7.

NLRP3 inflammasome = assay: RT-qPCR of NLRP3 inflammasome expression in THP-1 macrophages, uninfected or infected; type: cell-based
Procedure: THP-1 macrophages were differentiated with 50 ng/ml PMA for 24 hours, followed by 24 hours in media prior to infection. Differentiated THP-1 macrophages were infected with M. avium or M. abscessus for 1 hour with an MOI of 5. Infected cells were washed twice, followed by 1 hour of antibiotic treatment with 200 μg/ml of amikacin to remove extracellular bacteria. […] The treatments (see Table 2) included: (1) uninfected, (2) uninfected+range of BisEDT, (3) untreated+infected with M. avium, (4) M. avium infected+BIZ, (5) untreated+M. abscessus, and (6) M. abscessus infected+BIZ. The time points for sample preparation were 48 hours post infection. CFUs were determined as described above and RNA was collected from similar experiments.
THP-1 RNA from the cells was isolated using the Rneasy mini kit (Qiagen), followed by treatment with Dnase 1 recombinant (Roche Diagnostics) for 1 hour at 37° C. to remove contaminating genomic DNA. The DNase was inactivated with Turbo DNase-inactivation reagent (Turbo DNA-free kit, Thermo Fisher Scientific) for 2 min at 37° C. Inactivation reagent was removed via centrifugation for 1 min at 10,000×g, and RNA transferred to new collection tubes. RNA samples were stored at […] for future processing. cDNA was transcribed from host RNA using the iScript cDNA synthesis kit (Bio-Rad). The quality of cDNA was tested by PCR with Gold 360 master mix using the manufacturer's specifications (Thermo Fisher Scientific). The RT-qPCR reaction was performed using iQ SYBR Green Supermix (Bio-Rad) and an iCycler (CFX Connect Real-Time Systems, Bio-Rad) as previously described (1). Standard curves for each gene were run in each reaction and used to calculate absolute values of mRNA. Gene expression data are presented as relative expression to beta-actin. Primers (Table 3) were designed in Primer3 using sequences from GenBank (National Center for Biotechnology Information).

[2] = tested on: FITC-induced contact hypersensitivity; assay: FITC-induced contact hypersensitivity in mice (ear swelling, histopathology, ear cytokines); type: in vivo, BALB/c mice
Procedure: Protocol: Male BALB/c mice at 8 weeks old are used in the study.
All animals, except those in Group 1 (Sham), were sensitized topically (TOP) on the shaved abdominal skin with 200 μL of 0.5% Fluorescein Isothiocyanate (FITC) dissolved in 20% tributyrin in acetone on Days 1 and 2. On Day 7, animals were challenged by applying 20 μL of 0.5% FITC solution onto both sides of the right ear. Animals in Group 1 received nothing.
Vehicle, BisEDT test articles and reference compound (tacrolimus) were administered topically (TOP) once daily (QD) from Day 6 to Day 9 for 4 consecutive days (1 hour before FITC challenge on Day 7). The vehicle for BisEDT was phosphate-buffered saline (PBS).
• 2.5 mg/mL BisEDT topical suspension • 1.25 mg/mL BisEDT topical suspension—prepared as a 1:1 dilution of 2.5 mg/mL BisEDT topical suspension in sterile water and vortexed to ensure homogeneity
Analysis: Ear swelling was measured by an experimenter blinded to treatment group, with a dial thickness micrometer gauge as an index of inflammation 30 min before dosing on Days 7, 8, 9 and 10. On Day 10, ear swelling was measured at 24 hours after the last dosing. Ear edema was calculated by subtracting the thickness of Day 7 (normal control) from Day n (treated ear). Percentage inhibition was calculated according to the formula: (Ic−It)/Ic×100, where Ic and It refer to the increase of ear thickness (mm) both in the control and treated animals. Body weight was recorded daily during the study period.
The animals were sacrificed on Day 10 and the ears were then harvested and weighed. Half of the right ear was fixed in 10% formalin for histopathology, and the other half was processed for cytokine measurement (IL-18, IL-6, and IL-10) using ThermoFisher Mouse ProcartaPlex Kit by Luminex.

[3] = topical, compared to vehicle control

C1C[S][Bi]([S]CC[S][Bi]2[S]CC[S]2)[S]1 [BisEDT, 1,2-(Bis(1,3-dithia-2-bismolane)thio)ethane]
IL-10 expression level (A549 cells): increased
dose highly tolerated without adverse effects [1]: 59 µg/kg/day
activity of caspase-1 (FLICA) (neutrophils): slightly reduced
IL-18 level in transmigration supernatant (neutrophils; 6 hours, compared to vehicle): appreciably lower level
viability of the cells (neutrophils): very high level of viability
viability of the cells (neutrophils; listed as pravibismane): no effect on cell viability
IL-18 in conditioned media (neutrophils; compared to vehicle): down-regulated
neutrophil transmigration / recruitment (neutrophils; compared to vehicle): lower level of neutrophil transmigration; also recorded: inhibits neutrophil recruitment
neutrophil transmigration / recruitment (neutrophils; compared to vehicle, listed as pravibismane): reduced transmigration efficiency
IL-6 in conditioned media (neutrophils; conditioned media): Very minor changes
expression of VEGF (neutrophils; conditioned media): small increase
interferon-gamma in conditioned media (neutrophils; conditioned media): Very minor changes
activity of caspase-1 (FLICA) (neutrophils; listed as pravibismane): slight reduction
IL-10 secretion (neutrophils; summary): substantially increased
CCL4 (macrophage inflammatory protein) (neutrophils; transmigration supernatant, 6-hour time point): reduced
inhibitory effect on NLRP3 expression (NLRP3 inflammasome; BisEDT used after the infections): the inhibitory effect was not observed
NLRP3 expression (NLRP3 inflammasome; M. abscessus (MAB 19977) infected cells pretreated with 0.5 μg/ml): reduced NLRP3 expression
NLRP3 expression (NLRP3 inflammasome; M. abscessus infected cells): remained unchanged
NLRP3 expression (NLRP3 inflammasome; M. avium (MAH 104) infected cells pre-treated with 2 μg/ml, vs M. avium only infected cells): higher NLRP3 expression
NLRP3 expression (NLRP3 inflammasome; MAH 104 infection, 4 μg/ml treatment, vs MAH 104 infected cells): reduced NLRP3 expression
NLRP3 inhibition (NLRP3 inflammasome; NTM-infected macrophages): even greater dose-related NLRP3 inhibition
NLRP3 expression (NLRP3 inflammasome; pre-treatment with 1 μg/ml prior to MAB 19977 infection): did not impact NLRP3 expression
NLRP3 inflammasome expression relative to beta-actin (NLRP3 inflammasome; uninfected THP-1 cells): dose-related inhibitory effect; also recorded: inhibits AIM2 and NLRP3 inflammasome expression
overall effect in the FITC-induced contact hypersensitivity model ([2]; mouse, in vivo): overall anti-inflammatory effect
ear swelling ([2]; topical QD x 4, 2.5 and 1.25 mg/mL, compared to vehicle control): statistically significant and dose-dependent reduction
epidermal thickness [2, 3]: significant reduction
histopathological score [2, 3]: significant reduction
